From patent EP0205029A2, “Quinolinecarboxylic acids with an antibacterial activity” (BAYER AG, priority 1985, dated 1986)

Key:
[1] = local tolerability after repeated subcutaneous application; assay type: in vivo; details: Mäuse, subkutan, 5 Tage 2 x pro Tag, 1 bis 10 % Lösungen, 100 mg/kg bis 300 mg/kg
Procedure: (§1) Die erfindungsgemäßen Verbindungen zeigen eine ausgezeichnete lokale Verträglichkeit, z. B, nach subkutaner Applikation, im Gegensatz zu den freien Carbonsäuren. Dazu wurden Mäuse über 5 Tage 2 x pro Tag mit 1 bis 10 % Lösungen der Wirkstoffe subkutan behandelt, entsprechend einer Dosis von 100 mg/kg bis 300 mg/kg. Während der Behandlungsperiode sowie nach Absetzen der Behandlung wurden die Tiere beobachtet. Es zeigte sich, daß die Mäuse, die mit den erfindungsgemäßen Verbindungen, z. […] Somit sind die erfindungsgemäßen Verbindungen lokal deutlich besser verträglich als die entsprechenden freien Carbonsäuren und es können Lösungen im oben genannten Konzentrationsbereich bei guter lokaler Verträglichkeit mehrfach angewendet werden. In einem Mäuseprotektionsversuch (Infektion intraperitoneal, Therapie 30 Minuten nach Infektion durch subkutane Gabe) konnte gezeigt werden, daß die Substanzen nach parenteraler Applikation eine gute protektive Wirkung bei erhöhter lokaler Verträglichkeit des Esters besitzen. Die erfindungsgemäßen Verbindungen sind damit in gleicher Dosis protektiv wirksam wie die deutlich schlechter verträglichen freien Carbonsäuren.

[2] = mouse protection test (intraperitoneal infection, subcutaneous therapy 30 minutes after infection); assay type: in vivo, Mäuse; details: sc, Infektion intraperitoneal, Therapie 30 Minuten nach Infektion
Procedure: as §1

Structure (SMILES) | lokale Verträglichkeit (Merkmale einer lokalen Gewebeschädigung im Bereich der Injektionsstelle) [1] | ED (80-100) [2]
CCOC(=O)c1cn(C2CC2)c2cc(N3CCN(CC)CC3)c(F)cc2c1=O [Beispiel 1, 1-Cyclopropyl-6-fluor-7-(4-ethyl-1-piperazinyl)-1,4-dihydro-4-oxo-chinolin-3-carbonsäureethylester] | keine Merkmale einer lokalen Gewebeschädigung | 
CCN1CCN(c2cc3c(cc2F)c(=O)c(C(=O)O)cn3C2CC2)CC1 [Substanz A] |  | 2.5 mg/kg
CCOC(=O)c1cn(C2CC2)c2cc(N3CCN(CC)CC3)c(F)cc2c1=O [Substanz B] |  | 2.5 mg/kg
